Experimental data from patent publication US20050080045A1, “Composition comprising dextrinsulfate for the treatment of sexual transmitted diseases (std)” (priority 2001, published 2005).

What was measured:
[1] = tested on: HSV-2; assay: HSV plaque reduction assay in Vero cells (HSV-2); format: cell-based, Herpes Simplex Virus; details: mean of two determinations
Protocol: (§1) Dextrin sulphate was added to the cell culture and then removed following an incubation period. Virus was then added as it is thought that dextrin sulphate attaches to cell receptors, thereby blocking subsequent viral entry. Following incubation with virus, dextrin sulphate in carboxylmethyl cellulose was added. This medium was used to form a gel layer to prevent any intracellular virus (that has bypassed the dextrin sulphate-cell receptor blocking interaction) from further infecting other cells.
(§2) • (i) Seed 24 well cell culture plates with Vero cells (2×10^5 cells/ml/well). Prepare one plate per virus plus 2 plates for controls. • (ii) Grow cells to confluency overnight at 37° in 5% CO2. • (iii) Dilute virus as calculated to give about 100 plaques per well, a minimum volume of 5 ml per plate.
Plate Layout. Dextrin sulphate (D.S.) concentrations are in mg per ml. […]

[2] = tested on: Chlamydia trachomatis Sa2f strain; assay: Chlamydia trachomatis cell culture assay (inclusion bodies in McCoy cell monolayers); format: cell-based
Protocol: McCoy cell monolayers were prepared on coverslips in plastic Bijoux. Cells were infected with Chlamydia trachomatis either alone or in the presence of dextrin sulphate. The Sa2f strain of C. trachomatis was used. Sa2f, which causes lymphogranuloma venereum, is similar to C. trachomatis. It is a heavily passaged laboratory strain which can infect McCoy cells without the need for spinning (for most strains of C. trachomatis, it is necessary to spin the cells onto the monolayers in the presence of cyclohexamide in order for infection of the monolayers to occur).
After incubation, coverslips were fixed and stained for C. trachomatis. The number of inclusion bodies per coverslip was estimated by fluorescence microscopy.

[3] = tested on: HSV-1; assay: HSV plaque reduction assay in Vero cells (HSV-1); format: cell-based, Herpes Simplex Virus; details: mean of two determinations
Protocol: as §1, §2
Plate Layout. Dextrin sulphate (D.S.) concentrations are in mg per ml.
• (iv) Pipette cell medium off all wells except the cell control wells. • (v) Inoculate the appropriate well with 1 ml Dextrin sulphate made up in Minimum Essential Medium as per above layout. • (vi) Incubate the plate at 37° C. in CO2 incubator for 1 hour. • (vii) Remove Dextrin sulphate. • (viii) Inoculate 200 μl of virus dilution per well. • (ix) Incubate the plate at 37° C. in CO2 incubator for 1 hour. • (x) Add 1 ml Dextrin sulphate in CMC to appropriate wells, incubate the plates at 37° C. in CO2 incubator for 60 hours. • (xi) Fix with 10% formalin in PBS by topping up the wells, leave for a minimum of 1 hour. • (xii) Decant formalin, rinse plate in water, stain with crystal violet for 5-10 mins, rinse and drain. Leave plates to dry before counting.
(xiii) Count plaques, calculate IC50 by Grafit.

For dextrin sulphate, the IC50 ([1]; HSV-2 ACV resistant) was 4 µg/mL, the IC50 ([1]; HSV-2 ACV sensitive) was 110 µg/mL and the “Inhibition (Expt. 2.1.1)” value ([2]; Sa2f preincubated with dextrin sulphate before infecting the cell line) was “inhibition by dextrin”. The “Inhibition (Expt. 2.1.2)” value ([2]; dextrin sulphate preincubated with the cell line before infection with Sa2f) was “inhibition by dextrin”, the “course of inhibitory activity (Expt. 2.3.1)” value ([2]; larger infecting doses of Sa2f (400 inclusion bodies in 30 fields)) was “plateaued off” and the “course of inhibitory activity (Expt. 2.3.2)” value ([2]; lower infecting doses (40 inclusion bodies in 30 fields)) was “plateaued off”. The “inhibition (Expt. 2.3.2)” value ([2]; lower infecting doses (40 inclusion bodies in 30 fields), dextrin sulphate 1000 μg/ml) was “b) 80-90% inhibition”, the “Inhibition (Expt. 2.3)” value ([2]; use of different infecting doses of Sa2f) was “inhibition by dextrin” and the IC50 ([3]; DM-21, Laboratory HSB-1 ACV resistant) was 910 µg/mL. For the same substance, the IC50 ([3]; HSV-1 ACV resistant) was 2770 µg/mL, the IC50 ([3]; HSV-1 ACV sensitive) was 1130 µg/mL and the IC50 ([3]; SC-16, Laboratory HSV-1 ACV sensitive) was 330 µg/mL.
